Several values for one entry are separate records, joined by “and”; a condition that tells them apart may be missing. Equal values may be shown once. Entries after “also recorded” stand apart in the source; their conditions may differ. Read-outs that look alike come from different tables or passages of the source.
Experiments:
[1] = system: ShhN (sonic hedgehog) in nasal mucus; assay: ShhN nasal mucus vs PDE inhibitor comparison (Example 10); format: in vivo, human
[2] = system: Ts65Dn mice; set-up: cerebellar cross-sectional area at the midline and GC density: dose or concentration left out as unconfirmed; details: cited from earlier work
[3] = system: Ts65Dn mice; details: SAG and BrdU co-injected at P0; cited from earlier work
[4] = system: cerebellar Purkinje cells of Ts65Dn and euploid mice; details: cited from earlier work
[5] = system: Ts65Dn mice; details: TsSAG vs EuVeh and TsVeh; cited from earlier work
[6] = system: Ts65Dn mice; details: cited from earlier work
[7] = system: Ts65Dn mice; details: cited from earlier work; remark: listed apart in the source
[8] = system: Schaffer collateral-CA1 synapses of Ts65Dn mice; details: cited from earlier work; for TBS-induced LTP, fEPSP: hippocampal slices from TsSAG mice
[9] = system: Schaffer collateral-CA1 synapses of Ts65Dn mice; details: cited from earlier work
[10] = system: primary GCP cultures; details: compared with Shh-Np; cited from earlier work
[11] = system: Ts65Dn mice; details: SAG-treated mice, first 4 months of life; cited from earlier work
[12] = in vivo; cited from earlier work
[13] = system: Sonic hedgehog (SHH) in nasal mucus; assay: Sonic hedgehog in nasal mucus of hyposmic patients after oral theophylline, spectrophotometric ELISA; format: in vivo, human
[14] = system: patients with smell loss (hyposmia); assay: Smell function (olfactometry, subjective) in hyposmic patients after oral theophylline; format: in vivo, human
[15] = system: Sonic hedgehog (Shh) in parotid saliva; assay: Sonic hedgehog in parotid saliva of patients with taste dysfunction after oral theophylline (Example 2), ELISA; format: in vivo, human; details: for saliva sonic hedgehog after treatment with oral theophylline: mean ± SEM
[16] = system: patients with taste dysfunction; assay: Subjective taste acuity and flavor perception in hypogeusic patients after oral theophylline (Example 2); format: in vivo, human; details: for flavor perception, degree of improvement / taste acuity, degree of improvement: mean ± SEM
Method: Shh was measured in parotid saliva of both normal subjects and in patients with taste dysfunction of multiple etiologies by use of a sensitive spectrophotometric ELISA assay. Taste dysfunction was defined clinically by both subjective changes of taste acuity and flavor perception and by impaired gustometry. Patients were treated with oral theophylline 200-800 mg daily for 2-10 months with saliva Shh and taste function measured at intervals of 2-8 months.
Subjective statements of taste acuity loss and loss of flavor perception were quantitated by use of a scale from 0-100 with 100 reflecting total loss of taste acuity or flavor perception, 0 reflecting no loss and a number between 0-100 reflecting appropriate degree of loss. […] Mean±SEM of loss degree was measured among all patients and each pathology initiating taste dysfunction.
Saliva Shh and measurements of taste function by use of subjective responses of acuity and flavor perception and in olfactometry was measured at intervals of 2-6 months in these patients.

[17] = system: Sonic hedgehog (Shh) in parotid saliva; assay: Saliva sonic hedgehog in patients with taste dysfunction after oral theophylline (Example 3), ELISA; format: in vivo, human
[18] = system: patients with smell loss (hyposmia); details: prior hyposmic patients treated with oral theophylline (earlier studies); cited from earlier work
[19] = system: patients with taste dysfunction; assay: Gustometry (DT, RT, ME for four tastants) before and after theophylline (Example 3)
[20] = hippocampal slices from Ts65Dn mice
[21] = patients with taste dysfunction
[22] = theophylline treated (81), mean ± SEM

Structure (SMILES): O=C(Nc1c(Cl)cncc1Cl)c1ccc(OC(F)F)c(OCC2CC2)c1 [roflumilast]
- sonic hedgehog levels in nasal mucus ([1]; Patient ID No. 11, 500 micrograms daliresp (roflumilast) orally once per day for 4 months): 6660 pg/mL

Structure (SMILES): O=C1CCc2cc(OCCCCc3nnnn3C3CCCCC3)ccc2N1 [cilostazol]
- sonic hedgehog levels in nasal mucus, mean ([1]; Patient ID No. 7, 100 mg cilostazol once per day orally for 4 months): 769 pg/mL

Structure (SMILES): CNC1CCC(N(Cc2cccc(-c3ccncc3)c2)C(=O)c2sc3ccccc3c2Cl)CC1 (stereo not drawn) [SAG]
- GCP number at P6 ([2]; Ts65Dn mice, SAG subcutaneously on the day of birth): normalized GCP number
- cerebellar cross-sectional area at the midline and GC density ([2]; adult (about 16 weeks) Ts65Dn mice, single injection of SAG on the day of birth): had the same cross-sectional area and GC density as EuVeh; also recorded: normalizes cerebellar morphology in adult Ts65Dn mice
- GCP number at P6 ([2]; euploid mice (EuSAG), single dose of SAG at P0): did not significantly increase GCP number at P6
- dentate gyrus deficit / proliferation at P6 [3]: Dentate gyrus is not affected by SAG treatment
- depression of EPSC after induction of LTD ([4]; Ts65Dn mice, limited to lobule III, P=0.019): more depression of EPSC after the induction of LTD
- PPR values ([4]; euploid mice, lobule IX, P=0.005): significantly decreased the PPR values measured in lobule IX
- EPSC paired-pulse ratios (PPR) of Purkinje cells ([4]; trisomic mice, lobule III and IX): did not restore the PPR values in trisomic mice
- open-field performance (time in periphery or center) [5]: no significant differences were observed with TsSAG; also recorded: does not affect open-field performance
- Y maze performance (alternation, arm entrances; words) ([6]; Ts65Dn mice): did not have an effect on either outcome in Ts65Dn mice; also recorded: does not improve Y maze performance in Ts65Dn mice
- Y maze alternation ([6]; TsSAG mice (EuVeh 78%)): 60%
- MWM search strategies ([7]; TsSAG mice): used the same successful strategies as EuVeh; also recorded: normalizes search strategies of Ts65Dn mice in the MWM
- performance in MWM / tasks dependent on hippocampus ([7]; adult Ts65Dn mice, single SAG treatment at P0): normalized performance of adult Ts65Dn mice in the MWM; also recorded: corrects performance of trisomic mice in tasks dependent on hippocampus
- MWM performance ([7]; euploid mice): had no effect on the performance of euploid mice
- TBS-LTP [8, 20]: rescues attenuated TBS-LTP in hippocampal slices from Ts65Dn mice
- TBS-induced LTP, fEPSP ([8]; t=30 min): 132.9±2.2 % of baseline
- TBS-induced LTP, fEPSP ([8]; t=80 min): 127.4±2.0 % of baseline
- NMDA/AMPA ratio ([9]; TsSAG, n=11): 0.19±0.034
- NMDA-EPSCs [9, 20]: partially rescues attenuated NMDA-EPSCs in hippocampal slices from Ts65Dn mice
- mitogenic activity [10]: had mitogenic activity in primary GCP cultures
- tumor formation or complications [11]: no evidence of tumor formation or obvious complications in the first 4 months of life
- crossing of biological barriers [12]: crosses the gut, the placenta, and the blood-brain barrier; also recorded: penetrates the blood-brain barrier

Structure (SMILES): Cn1c(=O)c2[nH]cnc2n(C)c1=O [Theophylline, theophylline]
- sonic hedgehog concentration in nasal mucus, treatment with oral theophylline ([13]; PIHH patients (10), mean ± SEM): 70735 ± 5751^a,a1 (10) pg/ml
- sonic hedgehog concentration in nasal mucus, treatment with oral theophylline ([13]; all hyposmic patients (30 in Table 3, 31 in Table 4), mean ± SEM): 49191 ± 1710^c,a1 (30) pg/ml and 49191 ± 1710^a (31) pg/ml
- sonic hedgehog concentration in nasal mucus, treatment with oral theophylline ([13]; allergic rhinitis patients (11), mean ± SEM): 24460 ± 2610^a,a1 (11) pg/ml
- sonic hedgehog concentration in nasal mucus, treatment with oral theophylline ([13]; congenital smell loss patients (9), mean ± SEM): 3825 ± 474^a,a1 (9) pg/ml
- sonic hedgehog concentration in nasal mucus, treatment with oral theophylline ([13]; hyposmic men (17), oral theophylline 400-800 mg daily for 2-10 months, mean ± SEM): 47952 ± 3085^a,a1 (17) pg/ml
- sonic hedgehog concentration in nasal mucus, treatment with oral theophylline ([13]; hyposmic women (13), oral theophylline 400-800 mg daily for 2-10 months, mean ± SEM): 3859 ± 303^a,a1 (13) pg/ml
- increase of nasal mucus SHH over the untreated state ([13]; men, oral theophylline): 320 times
- increase of nasal mucus SHH over the untreated state ([13]; patient post anesthesia, oral theophylline): 48 times
- increase of nasal mucus SHH over the untreated state ([13]; patients with PIHH, oral theophylline): 46 times
- increase of nasal mucus SHH over the untreated state ([13]; patients with allergic rhinitis, oral theophylline): over 719 times
- increase of nasal mucus SHH over the untreated state ([13]; patients with congenital smell loss, oral theophylline): over 21 times
- SHH levels in nasal mucus versus untreated state ([13]; patients with hyposmia, oral theophylline): significantly increased SHH levels in nasal mucus
- sonic hedgehog concentration in nasal mucus, treatment with oral theophylline ([13]; post general anesthesia patient (1)): 57 (1) pg/ml
- increase of nasal mucus SHH over the untreated state ([13]; women, oral theophylline): 17 times
- smell improvement, patient number ([14]; PIHH (10)): 8
- smell improvement, percent of patients ([14]; PIHH (10)): 80%
- smell improvement, patient number ([14]; all treated patients (31), oral theophylline): 19
- smell improvement, percent of patients ([14]; all treated patients, oral theophylline): 60% and 61%
- smell improvement, patient number ([14]; allergic rhinitis (11)): 5
- smell improvement, percent of patients ([14]; allergic rhinitis (11)): 45%
- smell improvement, patient number ([14]; congenital (9)): 5
- smell improvement, percent of patients ([14]; congenital (9)): 56%
- smell improvement, patient number ([14]; post general anesthesia (1)): 1
- smell improvement, percent of patients ([14]; post general anesthesia (1)): 100%
- saliva sonic hedgehog after treatment with oral theophylline ([15]; hypogeusic patients after treatment (66), 200-1000 mg, 2-10 months): 199 ± 20 pmol/mL
- saliva sonic hedgehog after treatment with oral theophylline ([15]; men (61) after treatment): 180 ± 15 pmol/mL
- Shh in parotid saliva after oral theophylline [15, 21]: increased saliva Shh; also recorded: increased in parotid saliva to levels above those in normal subjects or in untreated patients
- saliva sonic hedgehog after treatment with oral theophylline ([15]; women (58) after treatment): 213 ± 33 pmol/mL
- patients with improvement in both subjective taste acuity and flavor perception ([16]; after oral theophylline): about 60%
- flavor perception, improvement number ([16]; all patients (79)): 45
- flavor perception, percent improved ([16]; all patients (79)): 63%
- taste acuity, percent improved ([16]; all patients (79)): 63%
- taste acuity, improvement number ([16]; all patients (79), oral theophylline): 45
- flavor perception, degree of improvement ([16]; all patients (79)): 24 ± 4%
- taste acuity, degree of improvement ([16]; all patients (79)): 28 ± 4^+ %
- flavor perception, improvement number ([16]; men (38)): 22
- flavor perception, percent improved ([16]; men (38)): 58%
- taste acuity, improvement number ([16]; men (38)): 21
- taste acuity, percent improved ([16]; men (38)): 55%
- flavor perception, degree of improvement ([16]; men (38)): 18 ± 4%
- taste acuity, degree of improvement ([16]; men (38)): 20 ± 5%
- taste function after theophylline [16, 21]: improved both subjective taste function and gustometry
- flavor perception, improvement number ([16]; women (41)): 23
- flavor perception, percent improved ([16]; women (41)): 54%
- taste acuity, improvement number ([16]; women (41)): 24
- taste acuity, percent improved ([16]; women (41)): 59%
- flavor perception, degree of improvement ([16]; women (41)): 36 ± 6%
- taste acuity, degree of improvement ([16]; women (41)): 35 ± 6%
- saliva sonic hedgehog after oral theophylline ([17]; PIHH (27), mean ± SEM): 210 ± 12 pmol/mL
- saliva sonic hedgehog after oral theophylline ([17]; allergic rhinitis (26), mean ± SEM): 212 ± 14^+ pmol/ml
- saliva sonic hedgehog after oral theophylline ([17]; anesthesia induced (2)): 151 pmol/mL
- saliva sonic hedgehog after oral theophylline ([17]; congenital (10), mean ± SEM): 132 ± 23 pmol/mL
- saliva sonic hedgehog after oral theophylline ([17]; head injury (14), mean ± SEM): 115 ± 15 pmol/mL
- increase of saliva Shh levels by theophylline [17, 21]: ~2 fold
- saliva sonic hedgehog after oral theophylline ([17]; post radiation (1)): 145 pmol/mL
- saliva sonic hedgehog ([17]; theophylline treated patients (81), mean ± SEM): 102 ± 10 pmol/mL
- smell improvement, percent of patients [18]: over 50%
- taste / gustometric function after theophylline [19, 21]: improved subjectively in taste function; also recorded: improved gustometric functions of treated patients
- HCl DT [19, 22]: 3.6 ± 0.2
- HCl ME [19, 22]: 54 ± 5
- HCl RT [19, 22]: 3.7 ± 0.3
- NaCl DT (detection threshold) [19, 22]: 3.4 ± 0.2
- NaCl ME (magnitude estimation) [19, 22]: 58 ± 5
- NaCl RT (recognition threshold) [19, 22]: 3.6 ± 0.2
- sucrose DT [19, 22]: 3.3 ± 0.2
- sucrose ME [19, 22]: 49 ± 5
- sucrose RT [19, 22]: 3.6 ± 0.2
- urea DT [19, 22]: 3.9 ± 0.3
- urea ME [19, 22]: 54 ± 5
- urea RT [19, 22]: 3.9 ± 0.3
